Target: T1, MDM2 (Homo sapiens, UniProt Q00987)
T1 construct: made in house
Assay: Inhibition test of MDM2-P53 (GST-MDM2, Biotin-P53, Anti-GST-Tb, SA-XL665)
Format: binding
Procedure, shortened: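 HTRF-type assay using 4 nM GST-MDM2 (final), Biotin-P53, SA-XL665 and anti-GST-Tb in PBS with 0.1% BSA, 5 mM DTT and 1 mM AEBSF. Compounds in 5-fold serial dilutions over twelve points; incubation 90 min at 25° C with shaking before plate-reader read-out.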

T1 sequence (Q00987 whole entry): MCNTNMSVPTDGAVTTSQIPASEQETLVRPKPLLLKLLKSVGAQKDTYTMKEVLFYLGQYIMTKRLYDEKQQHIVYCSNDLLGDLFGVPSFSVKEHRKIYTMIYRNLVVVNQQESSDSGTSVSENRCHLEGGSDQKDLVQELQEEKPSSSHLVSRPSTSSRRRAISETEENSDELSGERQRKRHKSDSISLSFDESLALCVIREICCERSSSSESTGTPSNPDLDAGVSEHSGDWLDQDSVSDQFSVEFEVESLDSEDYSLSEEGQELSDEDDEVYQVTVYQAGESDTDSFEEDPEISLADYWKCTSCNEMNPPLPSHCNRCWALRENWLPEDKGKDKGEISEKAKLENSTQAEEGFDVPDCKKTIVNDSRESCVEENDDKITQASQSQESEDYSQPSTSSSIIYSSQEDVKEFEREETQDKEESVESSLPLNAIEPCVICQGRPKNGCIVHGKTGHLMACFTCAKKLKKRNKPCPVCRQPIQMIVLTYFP

| SMILES | IC50 [nM] |
| --- | --- |
| COc1cc(C2CC2)ccc1-c1nc2c(n1C(C)C)[C@]1(C(=O)Nc3cc(Cl)ccc31)N(c1cc(Cl)cnc1C)C2=O [Example R-145, (R)-6-chloro-5′-(5-chloro-2-methylpyridin-3-yl)-2′-(4-cyclopropyl-2-methoxyphenyl)-3′-isopropyl-3′H-spiro[dihydroindole-3,4′-pyrrolo[3,4-d]imidazole]-2,6′(5′H)-dione] | 749 |
| CCOc1ccc(-c2nc3c(n2C(C)C)[C@]2(C(=O)Nc4cc(Cl)ccc42)N(c2cc(Cl)ccc2C)C3=O)c(OC)n1 [Example R-146, (R)-6-chloro-5′-(5-chloro-2-methylphenyl)-2′-(6-ethoxy-2-methoxypyridin-3-yl)-3′-isopropyl-3′H-spiro[dihydroindole-3,4′-pyrrolo[3,4-d]imidazole]-2,6′(5′H)-dione] | 6710 |
| COc1cc(OCCO)ccc1-c1nc2c(n1C(C)C)[C@]1(C(=O)Nc3cc(Cl)ccc31)N(c1cc(Cl)ccc1C)C2=O [Example R-148, (R)-6-chloro-5′-(5-chloro-2-methylphenyl)-2′-(4-(2-hydroxyethoxy)-2-methoxyphenyl)-3′-isopropyl-3′H-spiro[dihydroindole-3,4′-pyrrolo[3,4-d]imidazole]-2,6′(5′H)-dione] | 201 |
| COc1nc(C(C)C)ccc1-c1nc2c(n1C(C)C)[C@]1(C(=O)Nc3cc(Cl)ccc31)N(c1cc(Cl)ccc1C)C2=O [Example R-149, (R)-6-chloro-5′-(5-chloro-2-methylphenyl)-3′-isopropyl-2′-(6-isopropyl-2-methoxypyridin-3-yl)-3′H-spiro[dihydroindole-3,4′-pyrrolo[3,4-d]imidazole]-2,6′(5′H)-dione] | 2280 |
| COc1ncc(-c2nc3c(n2C(C)C)[C@]2(C(=O)Nc4cc(Cl)ccc42)N(c2cc(Cl)ccc2C#N)C3=O)c(OC)n1 [Example R-151, (R)-4-chloro-2-(6-chloro-2′-(2,4-dimethoxypyrimidin-5-yl)-3′-isopropyl-2,6′-dioxo-3′,6′-dihydro-5′H-spiro[dihydroindole-3,4′-pyrrolo[3,4-d]imidazole]-5′-yl)benzonitrile] | 5370 |
| COc1cc(C(F)(F)F)ncc1-c1nc2c(n1C(C)C)[C@]1(C(=O)Nc3cc(Cl)ccc31)N(c1cc(Cl)cnc1C)C2=O [Example R-152, (R)-6-chloro-5′-(5-chloro-2-methylpyridin-3-yl)-3′-isopropyl-2′-(4-methoxy-6-(trifluoromethyl)pyridine-3-yl)-3′H-spiro[dihydroindole-3,4′-pyrrolo[3,4-d]imidazole]-2,6′(5′H)-dione] | 134 |
| COc1cc(OCC(F)F)ncc1-c1nc2c(n1C(C)C)[C@]1(C(=O)Nc3cc(Cl)ccc31)N(c1cc(Cl)ccc1C)C2=O [Example R-153, (R)-6-chloro-5′-(5-chloro-2-methylphenyl)-2′-(6-(2,2-difluoroethoxy)-4-methoxypyridin-3-yl)-3′-isopropyl-3′H-spiro[dihydroindole-3,4′-pyrrolo[3,4-d]imidazole]-2,6′(5′H)-dione] | 31.1 |
| COc1cc(C)ncc1-c1nc2c(n1C(C)C)[C@]1(C(=O)Nc3cc(Cl)ccc31)N(c1cc(Cl)ccc1C)C2=O [Example R-154, (R)-6-chloro-5′-(5-chloro-2-methylphenyl)-3′-isopropyl-2′-(4-methoxy-6-methylpyridin-3-yl)-3′H-spiro[dihydroindole-3,4′-pyrrolo[3,4-d]imidazole]-2,6′(5′H)-dione] | 31.1 |
| COc1ncc(-c2nc3c(n2C(C)C)[C@]2(C(=O)Nc4cc(Cl)ccc42)N(c2ccc(C#N)c(Cl)c2)C3=O)c(OC)n1 [Example R-158, (R)-2-chloro-4-(6-chloro-2′-(2,4-dimethoxypyrimidin-5-yl)-3′-isopropyl-2,6′-dioxo-3′,6′-dihydro-5′H-spiro[dihydroindole-3,4′-pyrrolo[3,4-d]imidazole]-5′-yl)benzonitrile] | 2200 |
| COc1ncc(-c2nc3c(n2C(C)C)[C@]2(C(=O)Nc4cc(Cl)ccc42)N(c2ccc(OC(F)(F)F)c(Cl)c2)C3=O)c(OC)n1 [Example R-161, (R)-6-chloro-5′-(3-chloro-4-(trifluoromethoxy)phenyl)-2′-(2,4-dimethoxypyrimidin-5-yl)-3′-isopropyl-3′H-spiro[dihydroindole-3,4′-pyrrolo[3,4-d]imidazole]-2,6′(5′H)-dione] | 126 |
| COc1cc(OCCF)ncc1-c1nc2c(n1C(C)C)[C@]1(C(=O)Nc3cc(Cl)ccc31)N(c1cc(Cl)ccc1C)C2=O [Example R-163, (R)-6-chloro-5′-(5-chloro-2-methylphenyl)-2′-(6-(2-fluoroethoxy)-4-methoxypyridin-3-yl)-3′-isopropyl-3′H-spiro[dihydroindole-3,4′-pyrrolo[3,4-d]imidazole]-2,6′(5′H)-dione] | 166 |
| COc1cc(C(C)C)ncc1-c1nc2c(n1C(C)C)[C@]1(C(=O)Nc3cc(Cl)ccc31)N(c1cc(Cl)ccc1C)C2=O [Example R-164, (R)-6-chloro-5′-(5-chloro-2-methylphenyl)-3′-isopropyl-2′-(6-isopropyl-4-methoxypyridin-3-yl)-3′H-spiro[dihydroindole-3,4′-pyrrolo[3,4-d]imidazole]-2,6′(5′H)-dione] | 592 |
| COc1cc(C(C)C)ncc1-c1nc2c(n1C(C)C)[C@]1(C(=O)Nc3cc(Cl)ccc31)N(c1cc(Cl)cnc1C)C2=O [Example R-166, (R)-6-chloro-5′-(5-chloro-2-methylpyridin-3-yl)-3′-isopropyl-2′-(6-isopropyl-4-methoxypyridin-3-yl)-3′H-spiro[dihydroindole-3,4′-pyrrolo[3,4-d]imidazole]-2,6′(5′H)-dione] | 957 |
| COc1nc(OCCF)ncc1-c1nc2c(n1C(C)C)[C@]1(C(=O)Nc3cc(Cl)ccc31)N(c1cc(Cl)cnc1C)C2=O [Example R-170, (R)-6-chloro-5′-(5-chloro-2-methylpyridin-3-yl)-2′-(2-(2-fluoroethoxy)-4-methoxypyrimidin-5-yl)-3′-isopropyl-3′H-spiro[dihydroindole-3,4′-pyrrolo[3,4-d]imidazole]-2,6′(5′H)-dione] | 235 |
| COc1nc(OCCF)ncc1-c1nc2c(n1C(C)C)[C@]1(C(=O)Nc3cc(Cl)ccc31)N(c1cccc(Cl)c1)C2=O [Example R-171, (R)-6-chloro-5′-(3-chlorophenyl)-2′-(2-(2-fluoroethoxy)-4-methoxypyrimidin-5-yl)-3′-isopropyl-3′H-spiro[dihydroindole-3,4′-pyrrolo[3,4-d]imidazole]-2,6′(5′H)-dione] | 8830 |
| COc1nc(C(C)C)ncc1-c1nc2c(n1C(C)C)[C@]1(C(=O)Nc3cc(Cl)ccc31)N(c1cc(Cl)ccc1C)C2=O [Example R-172, (R)-6-chloro-5′-(5-chloro-2-methylphenyl)-3′-isopropyl-2′-(2-isopropyl-4-methoxypyrimidin-5-yl)-3′H-spiro[dihydroindole-3,4′-pyrrolo[3,4-d]imidazole]-2,6′(5′H)-dione] | 408 |
| COc1cc(OCCF)ncc1-c1nc2c(n1C(C)C)[C@]1(C(=O)Nc3cc(Cl)ccc31)N(c1cc(Cl)cnc1C)C2=O [Example R-173, (R)-6-chloro-5′-(5-chloro-2-methylpyridin-3-yl)-2′-(6-(2-fluoroethoxy)-4-methoxypyridin-3-yl)-3′-isopropyl-3′H-spiro[dihydroindole-3,4′-pyrrolo[3,4-d]imidazole]-2,6′(5′H)-dione] | 528 |
| COc1nc(C2CC2)ncc1-c1nc2c(n1C(C)C)[C@]1(C(=O)Nc3cc(Cl)ccc31)N(c1cc(F)cc(Cl)c1)C2=O [Example R-174, (R)-6-chloro-5′-(3-chloro-5-fluorophenyl)-2′-(2-cyclopropyl-4-methoxypyrimidin-5-yl)-3′-isopropyl-3′H-spiro[dihydroindole-3,4′-pyrrolo[3,4-d]imidazole]-2,6′(5′H)-dione] | 515 |
| COc1cc(OC)c(-c2nc3c(n2C(C)C)[C@]2(C(=O)Nc4cc(Cl)ccc42)N(c2cc(F)cc(Cl)c2)C3=O)cn1 [Example R-175, (R)-6-chloro-5′-(3-chloro-5-fluorophenyl)-2′-(4,6-dimethoxypyridin-3-yl)-3′-isopropyl-3′H-spiro[dihydroindole-3,4′-pyrrolo[3,4-d]imidazole]-2,6′(5′H)-dione] | 522 |
| COc1cc(C2CC2)ncc1-c1nc2c(n1C(C)C)[C@]1(C(=O)Nc3cc(Cl)ccc31)N(c1cc(F)cc(Cl)c1)C2=O [Example R-176, (R)-6-chloro-5′-(3-chloro-5-fluorophenyl)-2′-(6-cyclopropyl-4-methoxypyridin-3-yl)-3′-isopropyl-3′H-spiro[dihydroindole-3,4′-pyrrolo[3,4-d]imidazole]-2,6′(5′H)-dione] | 321 |
| COc1ncc(-c2nc3c(n2C(C)C)[C@@]2(C(=O)Nc4cc(Cl)ccc42)N(c2ccc(OC)c(Cl)c2)C3=O)c(OC)n1 [Example S-48, (S)-6-chloro-5′-(3-chloro-4-methoxyphenyl)-2′-(2,4-dimethoxypyrimidin-5-yl)-3′-isopropyl-3′H-spiro[dihydroindole-3,4′-pyrrolo[3,4-d]imidazole]-2,6′(5′H)-dione] | 1.46 |
| COc1ncc(-c2nc3c(n2C(C)C)[C@@]2(C(=O)Nc4cc(Cl)ccc42)N(c2cc(C)ccc2C)C3=O)c(OC)n1 [Example S-56, (S)-6-chloro-2′-(2,4-dimethoxypyrimidin-5-yl)-5′-(2,5-dimethylphenyl)-3′-isopropyl-3′H-spiro[dihydroindole-3,4′-pyrrolo[3,4-d]imidazole]-2,6′(5′H)-dione] | 5.19 |
| COc1ncc(-c2nc3c(n2C(C)C)[C@@]2(C(=O)Nc4cc(Cl)ccc42)N(c2ccc(C(N)=O)c(Cl)c2)C3=O)c(OC)n1 [Example S-60, (S)-2-chloro-4-(6-chloro-2′-(2,4-dimethoxypyrimidin-5-yl)-3′-isopropyl-2,6′-dioxo-3′,6′-dihydro-5′H-spiro[dihydroindole-3,4′-pyrrolo[3,4-d]imidazole]-5′-yl)benzamide] | 4.81 |

From patent US11339171B2, “MDM2 inhibitors” (Gan & Lee Pharmaceuticals, priority 2017, dated 2022)
